Compound in the test “Tosedostat + AZD7762”: CC(C)C[C@@H](C(=O)N[C@H](C(=O)OC1CCCC1)c1ccccc1)[C@H](O)C(=O)NO [Tosedostat] + NC(=O)Nc1cc(-c2cccc(F)c2)sc1C(=O)N[C@H]1CCCNC1 [AZD7762] (partner 0.2 µM)
Nature of the test: relative viability (nuclei count vs DMSO), 5 days (fraction); higher = more cells survive. The procedure, abridged:
(§1)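 Cells from lung cancer lines were seeded into 1536-well plates and, one day later, dosed by pin tool. Treatments were either a single drug or a fixed dose of an anchor drug with five library-drug doses (not always all listed) in √10 steps. After 5 days, nuclei were stained in a one-step fixation (final 0.05% Triton X-100, 1% formaldehyde, 1 ug/ml Hoechst) and counted on 4× images, and relative viability is the treated-to-vehicle nuclei ratio, as the median of duplicate plates.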

Compound in the test “Tosedostat + Vorinostat”: CC(C)C[C@@H](C(=O)N[C@H](C(=O)OC1CCCC1)c1ccccc1)[C@H](O)C(=O)NO [Tosedostat] + O=C(CCCCCCC(=O)Nc1ccccc1)NO [Vorinostat] (partner 1 µM)
The test is described as above. In outline: as §1

In the case of RERF-LC-KJ, the relative viability worked out at 1.12 with Tosedostat + AZD7762 (first compound 0.02 µM); 1.08 in the test with Tosedostat + AZD7762 (first compound 0.06325 µM); 1.08 in the test with Tosedostat + AZD7762 (first compound 0.2 µM); 0.912 in the test with Tosedostat + AZD7762 (first compound 0.6325 µM); 0.664 with Tosedostat + AZD7762 (first compound 2 µM); 0.692 in the test with Tosedostat + Vorinostat (first compound 0.02 µM). In addition, the relative viability in the test with Tosedostat + Vorinostat (first compound 0.06325 µM) turned out to be 0.676; with Tosedostat + Vorinostat (first compound 0.2 µM), 0.604; with Tosedostat + Vorinostat (first compound 0.6325 µM), 0.681; with Tosedostat + Vorinostat (first compound 2 µM), 0.619.
In the case of SW 900, the relative viability in the test with Tosedostat + AZD7762 (first compound 0.02 µM) was determined as 0.56; in the test with Tosedostat + AZD7762 (first compound 0.06325 µM) it was 0.603; in the test with Tosedostat + AZD7762 (first compound 0.2 µM) it was 0.644; with Tosedostat + AZD7762 (first compound 0.6325 µM), 0.661; with Tosedostat + AZD7762 (first compound 2 µM) it was 0.556; with Tosedostat + Vorinostat (first compound 0.02 µM) it was 0.37. Further, the relative viability stood at 0.35 in the test with Tosedostat + Vorinostat (first compound 0.06325 µM), 0.488 with Tosedostat + Vorinostat (first compound 0.2 µM), 0.515 with Tosedostat + Vorinostat (first compound 0.6325 µM) and 0.568 with Tosedostat + Vorinostat (first compound 2 µM).

Source of the values: the supplement of paper PMC10307832.
